Data taken from patent US20190151312A1, “HEPARAN SULFATE BIOSYNTHESIS INHIBITORS FOR THE TREATMENT OF DISEASES” (BioMarin Pharmaceutical Inc., priority 2014, published 2019).
Where two headings read alike, the source gives them in different places.

System: GM01896 cells (MPS II dermal fibroblasts)
Test: Assay 1: MPS cellular assay, MPS II (heparan sulfate disaccharide biomarkers by LC-MS)
Type: cell-based, human
Details: Assay 1 for MPS II, heparan sulfate disaccharide biomarkers (I2a4, I2a6, I2S0 and/or I2S6), read-out: IC50 Range
In short: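 MPS II patient dermal fibroblasts (GM01896) treated with compound at ≤30 μM for 4 to 21 days. Heparan sulfate GAGs isolated by anion exchange, digested with heparinases I-III, aniline-tagged against [13C6]aniline standards and quantified by LC-MS; IC50 from curve fitting. Viability monitored by alamar blue or ATP.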

Molecule	IC50 (Homo sapiens, Fibroblast)	IC50
CN(C)CCn1cc2ccc(-c3cc(Nc4ccc(Cl)cc4)nc(N4CCOCC4)n3)cc2n1 [[2-(6-{6-[(4-chlorophenyl)amino]-2-morpholin-4-ylpyrimidin-4-yl}(2H-indazol-2-yl))ethyl]dimethylamine]	0.5 to 1 µM	–
Cn1nc(CCN2CCOCC2)c2ccc(-c3cc(Nc4ccc(-c5ccn[nH]5)cc4)nc(N4CCOCC4)n3)cc21 [{6-[1-methyl-3-(2-morpholin-4-ylethyl)(1H-indazol-6-yl)]-2-morpholin-4-ylpyrimidin-4-yl}(4-pyrazol-5-ylphenyl)amine]	< 0.5 µM	–
Cc1nnc(-c2ccc(Nc3cc(-c4ccc5c(C)nn(CCN6CCOCC6)c5c4)nc(N4CCOCC4)n3)cc2)[nH]1 [[4-(5-methyl(4H-1,2,4-triazol-3-yl))phenyl]{6-[3-methyl-1-(2-morpholin-4-ylethyl)(1H-indazol-6-yl)]-2-morpholin-4-ylpyrimidin-4-yl}amine]	< 0.5 µM	–
Clc1ccc(Nc2cc(-c3cccc4[nH]ncc34)nc(N3CCOCC3)n2)cc1 [N-(4-chlorophenyl)-6-(1H-indazol-4-yl)-2-morpholinopyrimidin-4-amine]	0.5 to 1 µM	–
Cc1nn(C)c2cc(-c3cc(Nc4ccc5[nH]ncc5c4)nc(N4CCOCC4)n3)ccc12 [1H-indazol-5-yl[6-(1,3-dimethyl(1H-indazol-6-yl))-2-morpholin-4-ylpyrimidin-4-yl]amine]	1 to 5 µM	–
Clc1ccc(Nc2cc(-c3ccc4nn(CC5CC5)cc4c3)nc(N3CCOCC3)n2)cc1 [(4-chlorophenyl){6-[2-(cyclopropylmethyl)(2H-indazol-5-yl)]-2-morpholin-4-ylpyrimidin-4-yl}amine]	1 to 5 µM	–
Cc1nc2ccc(-c3cc(Nc4ccc(Cl)cc4)nc(N4CCOCC4)n3)cc2n1C1CC1 [(4-chlorophenyl)[6-(1-cyclopropyl-2-methylbenzimidazol-6-yl)-2-morpholin-4-ylpyrimidin-4-yl]amine]	0.5 to 1 µM	–
Cn1nc(CCN2CCOCC2)c2ccc(-c3cc(Nc4ccc(-c5cocn5)cc4)nc(N4CCOCC4)n3)cc21 [{6-[1-methyl-3-(2-morpholin-4-ylethyl)(1H-indazol-6-yl)]-2-morpholin-4-ylpyrimidin-4-yl}(4-(1,3-oxazol-4-yl)phenyl)amine]	< 0.5 µM	–
CN(C)CCn1cnc2cc(-c3cc(Nc4ccc(Cl)cc4)nc(N4CCOCC4)n3)ccc21 [[2-(5-{6-[(4-chlorophenyl)amino]-2-morpholin-4-ylpyrimidin-4-yl}benzimidazolyl)ethyl]dimethylamine]	–	1 to 5 µM
Cn1ncc2ccc(-c3cc(Nc4ccc(S(N)(=O)=O)cc4)nc(N4CCOCC4)n3)cc21 [4-{[6-(1-methyl(1H-indazol-6-yl))-2-morpholin-4-ylpyrimidin-4-yl]amino}benzenesulfonamide]	1 to 5 µM	–
CNC(=O)c1ccc(Nc2cc(-c3ccc4ncn(CCN5CCOCC5)c4c3)nc(N3CCOCC3)n2)cc1 [N-methyl[4-({2-morpholin-4-yl-6-[1-(2-morpholin-4-ylethyl)benzimidazol-6-yl]pyrimidin-4-yl}amino)phenyl]carboxamide]	0.5 to 1 µM	–
CCNC(=O)c1ccc(Nc2cc(-c3ccc4cnn(C)c4c3)nc(N3CCOCC3)n2)cc1 [N-ethyl(4-{[6-(1-methyl(1H-indazol-6-yl))-2-morpholin-4-ylpyrimidin-4-yl]amino}phenyl)carboxamide]	0.5 to 1 µM	–
Cn1ncc2ccc(-c3cc(Nc4ccc(N5CN=NC5=O)cc4)nc(N4CCOCC4)n3)cc21 [4-(4-{[6-(1-methyl(1H-indazol-6-yl))-2-morpholin-4-ylpyrimidin-4-yl]amino}phenyl)-1,2,4-triazolin-5-one]	1 to 5 µM	–
Cn1nc(CCCN2CCOCC2)c2ccc(-c3cc(Nc4ccc(Cl)cc4)nc(N4CCOCC4)n3)cc21 [(4-chlorophenyl){6-[1-methyl-3-(3-morpholin-4-ylpropyl)(1H-indazol-6-yl)]-2-morpholin-4-ylpyrimidin-4-yl}amine]	1 to 5 µM	–
CCn1ccc2ccc(Nc3cc(-c4ccc5c(C)nn(C)c5c4)nc(N4CCOCC4)n3)cc21 [[6-(1,3-dimethyl(1H-indazol-6-yl))-2-morpholin-4-ylpyrimidin-4-yl](1-ethylindol-6-yl)amine]	1 to 5 µM	–
Cc1nnc(-c2ccc(Nc3cc(-c4ccc5cnn(CCN6CCOCC6)c5c4)nc(N4CCOCC4)n3)cc2)[nH]1 [[4-(5-methyl(4H-1,2,4-triazol-3-yl))phenyl]{2-morpholin-4-yl-6-[1-(2-morpholin-4-ylethyl)(1H-indazol-6-yl)]pyrimidin-4-yl}amine]	< 0.5 µM	–
Cn1ccc(-c2ccc(Nc3cc(-c4ccc5cnn(C)c5c4)nc(N4CCOCC4)n3)cc2)n1 [[6-(1-methyl(1H-indazol-6-yl))-2-morpholin-4-ylpyrimidin-4-yl][4-(1-methylpyrazol-3-yl)phenyl]amine]	0.5 to 1 µM	–
[6-(1-methyl(1H-indazol-6-yl))-2-morpholin-4-ylpyrimidin-4-yl][4-(3-methylpyrazolyl)phenyl]amine	–	< 0.5 µM

Molecule	IC50 (Homo sapiens, Fibroblast)	IC50
Cc1nn(C)c2cc(-c3cc(Nc4ccc(-c5cc[nH]c5)cc4)nc(N4CCOCC4)n3)ccc12 [[6-(1,3-dimethyl(1H-indazol-6-yl))-2-morpholin-4-ylpyrimidin-4-yl](4-pyrrol-3-ylphenyl)amine]	0.5 to 1 µM	–
Cn1cnnc1-c1ccc(Nc2cc(-c3ccc4cnn(C)c4c3)nc(N3CCOCC3)n2)cc1 [[4-(4-methyl(1,2,4-triazol-3-yl))phenyl][6-(1-methyl(1H-indazol-6-yl))-2-morpholin-4-ylpyrimidin-4-yl]amine]	1 to 5 µM	–
Cn1cnc2ccc(-c3cc(Nc4ccc(S(N)(=O)=O)cc4)nc(N4CCOCC4)n3)cc21 [4-{[6-(1-methylbenzimidazol-6-yl)-2-morpholin-4-ylpyrimidin-4-yl]amino}benzenesulfonamide]	1 to 5 µM	–
CNC(=O)c1ccc(Nc2cc(-c3ccc4c(c3)ncn4CCCN3CCOCC3)nc(N3CCOCC3)n2)cc1 [N-methyl[4-({2-morpholin-4-yl-6-[1-(3-morpholin-4-ylpropyl)benzimidazol-5-yl]pyrimidin-4-yl}amino)phenyl]carboxamide]	1 to 5 µM	–
Cn1ncc2ccc(-c3cc(Nc4ccc(C5=NCCO5)cc4)nc(N4CCOCC4)n3)cc21 [[6-(1-methyl(1H-indazol-6-yl))-2-morpholin-4-ylpyrimidin-4-yl](4-(1,3-oxazolin-2-yl)phenyl)amine]	1 to 5 µM	–
CNC(=O)c1ccc(Nc2cc(-c3ccc4cnn(C5CCC5)c4c3)nc(N3CCOCC3)n2)cc1 [(4-{[6-(1-cyclobutyl(1H-indazol-6-yl))-2-morpholin-4-ylpyrimidin-4-yl]amino}phenyl)-N-methylcarboxamide]	< 0.5 µM	–
CNC(=O)c1ccc(Nc2cc(-c3ccc4ncn(CC5CC5)c4c3)nc(N3CCOCC3)n2)cc1 [[4-({6-[1-(cyclopropylmethyl)benzimidazol-6-yl]-2-morpholin-4-ylpyrimidin-4-yl}amino)phenyl]-N-methylcarboxamide]	< 0.5 µM	–
Cn1cnc2ccc(-c3cc(Nc4ccc(C(=O)NC5CC5)nc4)nc(N4CCOCC4)n3)cc21 [N-cyclopropyl(5-{[6-(1-methylbenzimidazol-6-yl)-2-morpholin-4-ylpyrimidin-4-yl]amino}(2-pyridyl))carboxamide]	0.5 to 1 µM	–
Cn1nc(CCCO)c2ccc(-c3cc(Nc4ccc(Cl)cc4)nc(N4CCOCC4)n3)cc21 [3-(6-{6-[(4-chlorophenyl)amino]-2-morpholin-4-ylpyrimidin-4-yl}-1-methyl-1H-indazol-3-yl)propan-1-ol]	0.5 to 1 µM	–
CNC(=O)c1ccc(Nc2cc(-c3ccc4ncn(C5CCC5)c4c3)nc(N3CCOCC3)n2)cc1 [(4-{[6-(1-cyclobutylbenzimidazol-6-yl)-2-morpholin-4-ylpyrimidin-4-yl]amino}phenyl)-N-methylcarboxamide]	< 0.5 µM	–
CN(C)CCn1cnc2ccc(-c3cc(Nc4ccc(Cl)cc4)nc(N4CCOCC4)n3)cc21 [[2-(6-{6-[(4-chlorophenyl)amino]-2-morpholin-4-ylpyrimidin-4-yl}benzimidazolyl)ethyl]dimethylamine]	–	0.5 to 1 µM
Clc1ccc(Nc2cc(-c3ccc4ncn(CCN5CCOCC5)c4c3)nc(N3CCOCC3)n2)cc1 [(4-chlorophenyl){2-morpholin-4-yl-6-[1-(2-morpholin-4-ylethyl)benzimidazol-6-yl]pyrimidin-4-yl}amine]	< 0.5 µM	–
CNC(=O)c1ccc(Nc2cc(-c3ccc4c(cnn4C)c3)nc(N3CCOCC3)n2)cn1 [N-methyl(5-{[6-(1-methyl(1H-indazol-5-yl))-2-morpholin-4-ylpyrimidin-4-yl]amino}(2-pyridyl))carboxamide]	0.5 to 1 µM	–
CC(=O)c1ccc(Nc2cc(-c3ccc4cnn(C)c4c3)nc(N3CCOCC3)n2)cc1 [1-acetyl-4-{[6-(1-methyl(1H-indazol-6-yl))-2-morpholin-4-ylpyrimidin-4-yl]amino}benzene]	0.5 to 1 µM	–
Cn1ncc2ccc(-c3cc(Nc4ccc(-c5cnn[nH]5)cc4)nc(N4CCOCC4)n3)cc21 [(4-(1H-1,2,3-triazol-5-yl)phenyl)[6-(1-methyl(1H-indazol-6-yl))-2-morpholin-4-ylpyrimidin-4-yl]amine]	1 to 5 µM	–
Cn1nc(CCN2CCOCC2)c2ccc(-c3nc(N4CCOCC4)nc(Nc4ccc(Cl)cc4)c3F)cc21 [(4-chlorophenyl){5-fluoro-6-[1-methyl-3-(2-morpholin-4-ylethyl)(1H-indazol-6-yl)]-2-morpholin-4-ylpyrimidin-4-yl}amine]	1 to 5 µM	–
CNC(=O)c1ccc(Nc2cc(-c3ccc4c(c3)ncn4C)nc(N3CCOCC3)n2)cn1 [N-methyl(5-{[6-(1-methylbenzimidazol-5-yl)-2-morpholin-4-ylpyrimidin-4-yl]amino}(2-pyridyl))carboxamide]	0.5 to 1 µM	–
Cn1c(CCN2CCCC2)nc2ccc(-c3cc(Nc4ccc(Cl)cc4)nc(N4CCOCC4)n3)cc21 [(4-chlorophenyl){6-[1-methyl-2-(2-pyrrolidinylethyl)benzimidazol-6-yl]-2-morpholin-4-ylpyrimidin-4-yl}amine]	< 0.5 µM	–
